Source: patent publication US10925283B2, “Microbiocidal phenylamidine derivatives” (SYNGENTA PARTICIPATIONS AG, priority 2016, dated 2021)

Tests used:
Assay type in all cases: in vivo
[1] = test system: Blumeria graminis f. sp. tritici (Erysiphe graminis f. sp. tritici); test: Blumeria graminis f. sp. tritici / wheat / leaf disc preventative (powdery mildew on wheat); conditions: foliar, wheat leaf segments cv. Kanzler, inoculated 1 day after application, assessed 6-8 days after application, read-out: control of Blumeria graminis f. sp. tritici (percent disease control compared to untreated)
Method: Blumeria graminis f. sp. tritici (Erysiphe graminis f. sp. tritici)/Wheat/Leaf Disc Preventative (Powdery Mildew on Wheat) Wheat leaf segments cv. Kanzler are placed on agar in a multiwell plate (24-well format) and sprayed with the formulated test compound diluted in water. The leaf disks are inoculated by shaking powdery mildew infected plants above the test plates 1 day after application. The inoculated leaf disks are incubated at 20° C. and 60% rh under a light regime of 24 h darkness followed by 12 h light/12 h darkness in a climate chamber and the activity of a compound is assessed as percent disease control compared to untreated when an appropriate level of disease damage appears on untreated check leaf segments (6-8 days after application).

Phakopsora pachyrhizi = Phakopsora pachyrhizi / soybean / preventative (soybean rust); conditions: foliar, soybean leaf disks, inoculated one day after application, assessed 12-14 days after application, read-out: control of Phakopsora pachyrhizi (percent disease control compared to untreated)
Method: Phakopsora pachyrhizi/Soybean/Preventative (Soybean Rust) Soybean leaf disks are placed on water agar in multiwell plates (24-well format) and sprayed with the formulated test compound diluted in water. One day after application leaf discs are inoculated by spraying a spore suspension on the lower leaf surface. After an incubation period in a climate cabinet of 24-36 hours in darkness at 20° C. and 75% rh leaf disc are kept at 20° C. with 12 h light/day and 75% rh. The activity of a compound is assessed as percent disease control compared to untreated when an appropriate level of disease damage appears in untreated check leaf disks (12-14 days after application).

[2] = test system: Puccinia recondita f. sp. tritici; test: Puccinia recondita f. sp. tritici / wheat / leaf disc preventative (brown rust); conditions: foliar, wheat leaf segments cv. Kanzler, inoculated 1 day after application, assessed 7-9 days after application, read-out: control of Puccinia recondita f. sp. tritici (percent disease control compared to untreated)
Method: Puccinia recondita f. Sp. Tritici/Wheat/Leaf Disc Preventative (Brown Rust) Wheat leaf segments cv. Kanzler are placed on agar in multiwell plates (24-well format) and sprayed with the formulated test compound diluted in water. The leaf disks are inoculated with a spore suspension of the fungus 1 day after application. The inoculated leaf segments are incubated at 19° C. and 75% rh under a light regime of 12 h light/12 h darkness in a climate cabinet and the activity of a compound is assessed as percent disease control compared to untreated when an appropriate level of disease damage appears in untreated check leaf segments (7-9 days after application).

[3] = test system: Puccinia recondita f. sp. tritici; test: Puccinia recondita f. sp. tritici / wheat / leaf disc curative (brown rust); conditions: foliar, wheat leaf segments cv. Kanzler, compound applied 1 day after inoculation, assessed 6-8 days after application, read-out: control of Puccinia recondita f. sp. tritici (percent disease control compared to untreated)
Method: Puccinia recondita f. Sp. Tritici/Wheat/Leaf Disc Curative (Brown Rust) Wheat leaf segments cv. Kanzler are placed on agar in multiwell plates (24-well format). The leaf segments are inoculated with a spore suspension of the fungus. Plates are stored in darkness at 19° C. and 75% rh. The formulated test compound diluted in water is applied 1 day after inoculation. The leaf segments are incubated at 19° C. and 75% rh under a light regime of 12 h light/12 h darkness in a climate cabinet and the activity of a compound is assessed as percent disease control compared to untreated when an appropriate level of disease damage appears in untreated check leaf segments (6-8 days after application).

Structure (SMILES): CC#CCOCC(O)(c1cc(C)c(/N=C/N(C)CC)cc1OC)C(F)(F)F (centres unmarked) [E.040, N′-[4-[1-(but-2-ynoxymethyl)-2,2,2-trifluoro-1-hydroxy-ethyl]-5-methoxy-2-methyl-phenyl]-N-ethyl-N-methyl-formamidine]
- pest or weed control at 200 ppm [1]: ≥ 80%
- pest or weed control at 200 ppm (Phakopsora pachyrhizi): ≥ 80%
- pest or weed control at 200 ppm [2]: ≥ 80%
- pest or weed control at 200 ppm [3]: ≥ 80%

Structure (SMILES): C#CCOCCC(O)(c1cc(C)c(/N=C/N(C)CC)cc1OC)C(F)(F)F (centres unmarked) [E.050, N-ethyl-N′-[4-[1-hydroxy-3-prop-2-ynoxy-1-(trifluoromethyl)propyl]-5-methoxy-2-methyl-phenyl]-N-methyl-formamidine]
- pest or weed control at 200 ppm [1]: ≥ 80%
- pest or weed control at 200 ppm (Phakopsora pachyrhizi): ≥ 80%
- pest or weed control at 200 ppm [2]: ≥ 80%
- pest or weed control at 200 ppm [3]: ≥ 80%

Structure (SMILES): CCN(C)/C=N/c1cc(OC)c(C(O)(COCC2CCC2)C(F)(F)F)cc1C (centres unmarked) [E.011, N′-[4-[1-(cyclobutylmethoxymethyl)-2,2,2-trifluoro-1-hydroxy-ethyl]-5-methoxy-2-methyl-phenyl]-N-ethyl-N-methyl-formamidine]
- pest or weed control at 200 ppm [1]: ≥ 80%
- pest or weed control at 200 ppm (Phakopsora pachyrhizi): ≥ 80%
- pest or weed control at 200 ppm [2]: ≥ 80%
- pest or weed control at 200 ppm [3]: ≥ 80%

Structure (SMILES): CCC(CC)OCC(O)(c1cc(C)c(/N=C/N(C)CC)cc1OC)C(F)(F)F (centres unmarked) [E.024, N-ethyl-N′-[4-[1-(1-ethylpropoxymethyl)-2,2,2-trifluoro-1-hydroxy-ethyl]-5-methoxy-2-methyl-phenyl]-N-methyl-formamidine]
- pest or weed control at 200 ppm (Phakopsora pachyrhizi): ≥ 80%

Structure (SMILES): CCN(C)/C=N/c1cc(OC)c(C(O)(COCc2ccccc2)C(F)(F)F)cc1C (centres unmarked) [E.043, N′-[4-[1-(benzyloxymethyl)-2,2,2-trifluoro-1-hydroxy-ethyl]-5-methoxy-2-methyl-phenyl]-N-ethyl-N-methyl-formamidine]
- pest or weed control at 200 ppm [1]: ≥ 80%
- pest or weed control at 200 ppm (Phakopsora pachyrhizi): ≥ 80%
- pest or weed control at 200 ppm [2]: ≥ 80%

Structure (SMILES): CCN(C)/C=N/c1cc(OC)c(C(O)(COC2CCCC2)C(F)(F)F)cc1C (centres unmarked) [E.032, N′-[4-[1-(cyclopentoxymethyl)-2,2,2-trifluoro-1-hydroxy-ethyl]-5-methoxy-2-methyl-phenyl]-N-ethyl-N-methyl-formamidine]
- pest or weed control at 200 ppm (Phakopsora pachyrhizi): ≥ 80%

Structure (SMILES): CCN(C)/C=N/c1cc(OC)c(C(O)(C/C(C)=N/OCc2ccccc2)C(F)(F)F)cc1C (centres unmarked) [E.081]
- pest or weed control at 200 ppm [1]: ≥ 80%
- pest or weed control at 200 ppm (Phakopsora pachyrhizi): ≥ 80%
- pest or weed control at 200 ppm [2]: ≥ 80%
- pest or weed control at 200 ppm [3]: ≥ 80%

Structure (SMILES): CCN(C)/C=N/c1cc(OC)c(C(O)(CCOc2ccc(F)cc2)C(F)(F)F)cc1C (centres unmarked) [E.053, N-ethyl-N′-[4-[3-(4-fluorophenoxy)-1-hydroxy-1-(trifluoromethyl)propyl]-5-methoxy-2-methyl-phenyl]-N-methyl-formamidine]
- pest or weed control at 200 ppm [1]: ≥ 80%
- pest or weed control at 200 ppm (Phakopsora pachyrhizi): ≥ 80%
- pest or weed control at 200 ppm [2]: ≥ 80%
- pest or weed control at 200 ppm [3]: ≥ 80%

Structure (SMILES): CCN(C)/C=N/c1cc(OC)c(C(O)(COCc2ccc(F)cc2)C(F)(F)F)cc1C (centres unmarked) [E.044, N-ethyl-N′-[5-methoxy-2-methyl-4-[2,2,2-trifluoro-1-[(4-fluorophenyl)methoxymethyl]-1-hydroxy-ethyl]phenyl]-N-methyl-formamidine]
- pest or weed control at 200 ppm [1]: ≥ 80%
- pest or weed control at 200 ppm (Phakopsora pachyrhizi): ≥ 80%
- pest or weed control at 200 ppm [2]: ≥ 80%

Structure (SMILES): CCN(C)/C=N/c1cc(OC)c(C(O)(CO[C@H]2CC[C@H](C)CC2)C(F)(F)F)cc1C (some centres unmarked) [E.004, N-ethyl-N′-[5-methoxy-2-methyl-4-[2,2,2-trifluoro-1-hydroxy-1-[(4-methylcyclohexoxy)methyl]ethyl]phenyl]-N-methyl-formamidine]
- pest or weed control at 200 ppm (Phakopsora pachyrhizi): ≥ 80%

Structure (SMILES): CCCC1OCC(C)(COCC(O)(c2cc(C)c(/N=C/N(C)CC)cc2OC)C(F)(F)F)CO1 (centres unmarked) [E.001, N-ethyl-N′-[5-methoxy-2-methyl-4-[2,2,2-trifluoro-1-hydroxy-1-[(5-methyl-2-propyl-1,3-dioxan-5-yl)methoxymethyl]ethyl]phenyl]-N-methyl-formamidine]
- pest or weed control at 200 ppm [1]: ≥ 80%
- pest or weed control at 200 ppm [2]: ≥ 80%
- pest or weed control at 200 ppm [3]: ≥ 80%

Structure (SMILES): CCN(C)/C=N/c1cc(OC)c(C(O)(COCCc2ccc(F)cc2)C(F)(F)F)cc1C (centres unmarked) [E.026, N-ethyl-N′-[5-methoxy-2-methyl-4-[2,2,2-trifluoro-1-[2-(4-fluorophenyl)ethoxymethyl]-1-hydroxy-ethyl]phenyl]-N-methyl-formamidine]
- pest or weed control at 200 ppm [1]: ≥ 80%
- pest or weed control at 200 ppm [2]: ≥ 80%
- pest or weed control at 200 ppm [3]: ≥ 80%

Structure (SMILES): CCN(C)/C=N/c1cc(OC)c(C(O)(COCC(C)(C)C)C(F)(F)F)cc1C (centres unmarked) [E.008, N′-[4-[1-(2,2-dimethylpropoxymethyl)-2,2,2-trifluoro-1-hydroxy-ethyl]-5-methoxy-2-methyl-phenyl]-N-ethyl-N-methyl-formamidine]
- pest or weed control at 200 ppm [1]: ≥ 80%
- pest or weed control at 200 ppm [2]: ≥ 80%
- pest or weed control at 200 ppm [3]: ≥ 80%

Structure (SMILES): CCN(C)/C=N/c1cc(OC)c(C(O)(COCC2(CC)COC2)C(F)(F)F)cc1C (centres unmarked) [E.034, N-ethyl-N′-[4-[1-[(3-ethyloxetan-3-yl)methoxymethyl]-2,2,2-trifluoro-1-hydroxy-ethyl]-5-methoxy-2-methyl-phenyl]-N-methyl-formamidine]
- pest or weed control at 200 ppm [1]: ≥ 80%
- pest or weed control at 200 ppm [2]: ≥ 80%
- pest or weed control at 200 ppm [3]: ≥ 80%

Structure (SMILES): CCO/N=C(/CC(O)(c1cc(C)c(/N=C/N(C)CC)cc1OC)C(F)(F)F)c1ccccc1 (centres unmarked) [E.058, N′-[4-[(3Z)-3-ethoxyimino-1-hydroxy-3-phenyl-1-(trifluoromethyl)propyl]-5-methoxy-2-methyl-phenyl]-N-ethyl-N-methyl-formamidine]
- pest or weed control at 200 ppm [1]: ≥ 80%
- pest or weed control at 200 ppm [2]: ≥ 80%
- pest or weed control at 200 ppm [3]: ≥ 80%

Structure (SMILES): CCN(C)/C=N/c1cc(OC)c(C(O)(COCC(C)(C)COC(C)(C)C)C(F)(F)F)cc1C (centres unmarked) [E.015, N′-[4-[1-[(3-tert-butoxy-2,2-dimethyl-propoxy)methyl]-2,2,2-trifluoro-1-hydroxy-ethyl]-5-methoxy-2-methyl-phenyl]-N-ethyl-N-methyl-formamidine]
- pest or weed control at 200 ppm [1]: ≥ 80%
- pest or weed control at 200 ppm [2]: ≥ 80%
- pest or weed control at 200 ppm [3]: ≥ 80%

Structure (SMILES): CCN(C)/C=N/c1cc(OC)c(C(O)(CSc2ccccc2)C(F)(F)F)cc1C (centres unmarked) [E.072, N-ethyl-N′-[5-methoxy-2-methyl-4-[2,2,2-trifluoro-1-hydroxy-1-(phenylsulfanylmethyl)ethyl]phenyl]-N-methyl-formamidine]
- pest or weed control at 200 ppm [1]: ≥ 80%
- pest or weed control at 200 ppm (Phakopsora pachyrhizi): ≥ 80%
- pest or weed control at 200 ppm [2]: ≥ 80%

Structure (SMILES): CCN(C)/C=N/c1cc(OC)c(C(O)(COCCOC)C(F)(F)F)cc1C (centres unmarked) [E.012, N-ethyl-N′-[5-methoxy-2-methyl-4-[2,2,2-trifluoro-1-hydroxy-1-(2-methoxyethoxymethyl)ethyl]phenyl]-N-methyl-formamidine]
- pest or weed control at 200 ppm [1]: ≥ 80%
- pest or weed control at 200 ppm [2]: ≥ 80%
- pest or weed control at 200 ppm [3]: ≥ 80%

Structure (SMILES): CCN(C)/C=N/c1cc(OC)c(C(O)(COCc2cccc(C)c2)C(F)(F)F)cc1C (centres unmarked) [E.035, N-ethyl-N′-[5-methoxy-2-methyl-4-[2,2,2-trifluoro-1-hydroxy-1-(m-tolylmethoxymethyl)ethyl]phenyl]-N-methyl-formamidine]
- pest or weed control at 200 ppm [1]: ≥ 80%
- pest or weed control at 200 ppm [2]: ≥ 80%
- pest or weed control at 200 ppm [3]: ≥ 80%
